Reference: the supplement of paper PMC11061612

Tests used:
Carboplatin = compound: C1CC(C1)(C(=O)[O-])C(=O)[O-].N.N.[Pt+2] [Carboplatin]; conditions: max 10 µM
Outline: (§1)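 After 24 hours at 37°C and 5% CO2 in 1536-well plates holding 7.5 μl of DMEM/F12 or RPMI with 10% FBS, cancer cell lines were dosed for 72 hours, with final DMSO typically 0.2%. Viability came from CellTiter-Glo 2.0 luminescence, scaled between the means of blank wells and DMSO wells. A non-linear mixed effects model fitted a two-parameter logistic curve to each dose response to give the single-agent IC50.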

AZD5363 = compound: C1CN(CCC1(C(=O)N[C@@H](CCO)C2=CC=C(C=C2)Cl)N)C3=NC=NC4=C3C=CN4 [AZD5363]; conditions: max 10 µM
Outline: as §1

AZD1775 = compound: C=CCn1c(=O)c2cnc(Nc3ccc(N4CCN(C)CC4)cc3)nc2n1-c1cccc(C(C)(C)O)n1 [AZD1775]; conditions: max 3 µM
Outline: as §1

Trametinib = compound: CC(=O)Nc1cccc(-n2c(=O)n(C3CC3)c(=O)c3c(Nc4ccc(I)cc4F)n(C)c(=O)c(C)c32)c1 [Trametinib]; conditions: max 1 µM
Outline: as §1

Paclitaxel = compound: CC(=O)O[C@H]1C(=O)[C@@]2(C)[C@H]([C@H](OC(=O)c3ccccc3)[C@]3(O)C[C@H](OC(=O)[C@H](O)[C@@H](NC(=O)c4ccccc4)c4ccccc4)C(C)=C1C3(C)C)[C@]1(OC(C)=O)CO[C@@H]1C[C@@H]2O [Paclitaxel]; conditions: max 3 µM
Outline: as §1

Palbociclib = compound: CC(=O)c1c(C)c2cnc(Nc3ccc(N4CCNCC4)cn3)nc2n(C2CCCC2)c1=O [Palbociclib]; conditions: max 10 µM
Outline: as §1

AZD1390 = compound: CC(C)n1c(=O)n(C)c2cnc3cc(F)c(-c4ccc(OCCCN5CCCCC5)nc4)cc3c21 [AZD1390]; conditions: max 0.3 µM
Outline: as §1

Venetoclax = compound: CC1(C)CCC(CN2CCN(c3ccc(C(=O)NS(=O)(=O)c4ccc(NCC5CCOCC5)c([N+](=O)[O-])c4)c(Oc4cnc5[nH]ccc5c4)c3)CC2)=C(c2ccc(Cl)cc2)C1 [Venetoclax]; conditions: max 1 µM
Outline: as §1

Dasatinib = compound: CC1=C(C(=CC=C1)Cl)NC(=O)C2=CN=C(S2)NC3=CC(=NC(=N3)C)N4CCN(CC4)CCO [Dasatinib]; conditions: max 2 µM
Outline: as §1

SG3199 = compound: CC1=CN2[C@@H](C1)C=NC3=CC(=C(C=C3C2=O)OC)OCCCCCOC4=C(C=C5C(=C4)N=C[C@@H]6CC(=CN6C5=O)C)OC [SG3199]; conditions: max 0.001 µM
Outline: as §1

AZD2811 = compound: CCN(CCO)CCCOc1ccc2c(Nc3cc(CC(=O)Nc4cccc(F)c4)[nH]n3)ncnc2c1 [AZD2811]; conditions: max 1 µM
Outline: as §1

SN-38 = compound: CCc1c2c(nc3ccc(O)cc13)-c1cc3c(c(=O)n1C2)COC(=O)[C@]3(O)CC [SN-38]; conditions: max 0.3 µM
Outline: as §1

AZD0156 = compound: CN(C)CCCOc1ccc(-c2ccc3ncc4c(c3c2)n(C2CCOCC2)c(=O)n4C)cn1 [AZD0156]; conditions: max 3 µM
Outline: as §1

AZD4320 = compound: CN(CC[C@H](CSC1=CC=CC=C1)NC2=C(C=C(C=C2)S(=O)(=O)NC(=O)C3=CC=C(C=C3)N4CCC(CC4)[C@H](C5=CC=CC=C5C6=CC=C(C=C6)Cl)O)S(=O)(=O)C(F)(F)F)CCO [AZD4320]; conditions: max 1 µM
Outline: as §1

Alisertib = compound: COc1cc(Nc2ncc3c(n2)-c2ccc(Cl)cc2C(c2c(F)cccc2OC)=NC3)ccc1C(=O)O [Alisertib]; conditions: max 10 µM
Outline: as §1

Etoposide = compound: COc1cc([C@@H]2c3cc4c(cc3[C@@H](O[C@@H]3O[C@@H]5CO[C@@H](C)O[C@H]5[C@H](O)[C@H]3O)[C@H]3COC(=O)[C@H]23)OCO4)cc(OC)c1O [Etoposide]; conditions: max 10 µM
Outline: as §1

Gefitinib = compound: COc1cc2ncnc(Nc3ccc(F)c(Cl)c3)c2cc1OCCCN1CCOCC1 [Gefitinib]; conditions: max 10 µM
Outline: as §1

Prexasertib = compound: COc1cccc(OCCCN)c1-c1cc(Nc2cnc(C#N)cn2)n[nH]1 [Prexasertib]; conditions: max 1 µM
Outline: as §1

Doxorubicin = compound: COc1cccc2c1C(=O)c1c(O)c3c(c(O)c1C2=O)C[C@@](O)(C(=O)CO)C[C@@H]3O[C@H]1C[C@H](N)[C@H](O)[C@H](C)O1 [Doxorubicin]; conditions: max 1 µM
Outline: as §1

AZD5153 = compound: COc1nnc2ccc(N3CCC(c4ccc(OCCN5CCN(C)C(=O)[C@H]5C)cc4)CC3)nn12 [AZD5153]; conditions: max 1 µM
Outline: as §1

Lapatinib = compound: CS(=O)(=O)CCNCc1ccc(-c2ccc3ncnc(Nc4ccc(OCc5cccc(F)c5)c(Cl)c4)c3c2)o1 [Lapatinib]; conditions: max 10 µM
Outline: as §1

AZD8186 = compound: C[C@@H](Nc1cc(F)cc(F)c1)c1cc(C(=O)N(C)C)cc2c(=O)cc(N3CCOCC3)oc12 [AZD8186]
Outline: as §1

Crizotinib = compound: C[C@@H](Oc1cc(-c2cnn(C3CCNCC3)c2)cnc1N)c1c(Cl)ccc(F)c1Cl [Crizotinib]; conditions: max 10 µM
Outline: as §1

Savolitinib = compound: C[C@@H](c1ccc2nccn2c1)n1nnc2ncc(-c3cnn(C)c3)nc21 [Savolitinib]; conditions: max 1 µM
Outline: as §1

AZD6738 = compound: C[C@@H]1COCCN1C2=NC(=NC(=C2)C3(CC3)[S@](=N)(=O)C)C4=C5C=CNC5=NC=C4 [AZD6738]; conditions: max 10 µM
Outline: as §1

AZD5991 = compound: Cc1c2c(nn1C)CSCc1cc(n(C)n1)CSc1cc(c3ccccc3c1)OCCCc1c(C(=O)O)n(C)c3c-2c(Cl)ccc13 [AZD5991]; conditions: max 1 µM
Outline: as §1

AZD7648 = compound: Cc1cc2ncnn2cc1Nc1ncc2c(n1)n(C1CCOCC1)c(=O)n2C [AZD7648]; conditions: max 10 µM
Outline: as §1

Taselisib = compound: Cc1nc(-c2cn3c(n2)-c2ccc(-c4cnn(C(C)(C)C(N)=O)c4)cc2OCC3)n(C(C)C)n1 [Taselisib]; conditions: max 10 µM
Outline: as §1

Selumetinib = compound: Cn1cnc2c(F)c(Nc3ccc(Br)cc3Cl)c(C(=O)NOCCO)cc21 [Selumetinib]; conditions: max 10 µM
Outline: as §1

SRA737 = compound: N#Cc1cnc(Nc2cc(NC[C@H]3CNCCO3)c(C(F)(F)F)cn2)cn1 [SRA737]; conditions: max 10 µM
Outline: as §1

MK-2206 = compound: NC1(c2ccc(-c3nc4ccn5c(=O)[nH]nc5c4cc3-c3ccccc3)cc2)CCC1 [MK-2206]; conditions: max 10 µM
Outline: as §1

Gemcitabine = compound: Nc1ccn([C@@H]2O[C@H](CO)[C@@H](O)C2(F)F)c(=O)n1 [Gemcitabine]; conditions: max 0.3 µM
Outline: as §1

[1] = compound: O=C(Nc1ccc2[nH]nc(-c3ccncc3)c2c1)[C@@H]1CCN(CC(=O)N2CCN(c3ccc(-c4ncccn4)cc3)CC2)C1; conditions: max 5 µM
Outline: as §1

Olaparib = compound: O=C(c1cc(Cc2n[nH]c(=O)c3ccccc23)ccc1F)N1CCN(C(=O)C2CC2)CC1 [Olaparib]; conditions: max 10 µM
Outline: as §1

5-Fluorouracil = compound: O=c1[nH]cc(F)c(=O)[nH]1 [5-Fluorouracil]; conditions: max 20 µM
Outline: as §1

Capivasertib = compound: C1CN(CCC1(C(=O)N[C@@H](CCO)C2=CC=C(C=C2)Cl)N)C3=NC=NC4=C3C=CN4 [Capivasertib]; conditions: max 10 µM
Outline: as §1

Cell Line	IC50, cell viability 72 h (Carboplatin) [µM]	IC50, cell viability 72 h (AZD5363) [µM]	IC50, cell viability 72 h (AZD1775) [µM]	IC50, cell viability 72 h (Trametinib) [µM]	IC50, cell viability 72 h (Paclitaxel) [µM]	IC50, cell viability 72 h (Palbociclib) [µM]	IC50, cell viability 72 h (AZD1390) [µM]	IC50, cell viability 72 h (Venetoclax) [µM]	IC50, cell viability 72 h (Dasatinib) [µM]	IC50, cell viability 72 h (SG3199) [µM]	IC50, cell viability 72 h (AZD2811) [µM]	IC50, cell viability 72 h (SN-38) [µM]	IC50, cell viability 72 h (AZD0156) [µM]	IC50, cell viability 72 h (AZD4320) [µM]	IC50, cell viability 72 h (Alisertib) [µM]	IC50, cell viability 72 h (Etoposide) [µM]	IC50, cell viability 72 h (Gefitinib) [µM]	IC50, cell viability 72 h (Prexasertib) [µM]	IC50, cell viability 72 h (Doxorubicin) [µM]	IC50, cell viability 72 h (AZD5153) [µM]	IC50, cell viability 72 h (Lapatinib) [µM]	IC50, cell viability 72 h (AZD8186; max 10 µM) [µM]	IC50, cell viability 72 h (Crizotinib) [µM]	IC50, cell viability 72 h (Savolitinib) [µM]	IC50, cell viability 72 h (AZD6738) [µM]	IC50, cell viability 72 h (AZD5991) [µM]	IC50, cell viability 72 h (AZD7648) [µM]	IC50, cell viability 72 h (Taselisib) [µM]	IC50, cell viability 72 h (Selumetinib) [µM]	IC50, cell viability 72 h (SRA737) [µM]	IC50, cell viability 72 h (MK-2206) [µM]	IC50, cell viability 72 h (Gemcitabine) [µM]	IC50, cell viability 72 h [1] [µM]	IC50, cell viability 72 h (Olaparib) [µM]	IC50, cell viability 72 h (5-Fluorouracil) [µM]	IC50, cell viability 72 h (Capivasertib) [µM]	IC50, cell viability 72 h (AZD8186; max 3 µM) [µM]
KINGS-1 (Low Grade Glioma)	> 10	> 10	> 3	> 1	> 3	> 10	> 0.3	> 1	> 2	> 0.001	> 1	> 0.3	> 3	> 1	> 10	> 10	> 10	> 1	> 1	> 1	> 10	> 10	> 10	> 1	> 10	> 1	> 10	> 10	> 10	> 10	> 10	> 0.3	> 5	> 10	> 20	–	–
LC4-1 (B-Lymphoblastic Leukemia)	> 10	> 10	0.269	> 1	0.00682	4.23	> 0.3	0.00363	> 2	> 0.001	0.0111	0.00226	> 3	0.00254	0.529	0.355	> 10	0.0118	0.0833	0.0743	6.11	> 10	3	> 1	1.28	0.22	> 10	> 10	> 10	3.64	> 10	0.0309	3.95	> 10	9.63	–	–
NB7 (Neuroblastoma)	> 10	> 10	0.963	> 1	0.268	> 10	> 0.3	> 1	> 2	> 0.001	> 1	0.0349	> 3	> 1	6.06	6.52	> 10	0.072	> 1	> 1	> 10	> 10	> 10	> 1	> 10	> 1	> 10	> 10	> 10	> 10	> 10	0.141	> 5	> 10	> 20	–	–
NCI-N87 (Gastric Carcinoma)	> 10	4.23	1.69	0.404	0.43	> 10	> 0.3	> 1	1.85	> 0.001	> 1	0.0598	> 3	> 1	> 10	6.74	1.96	0.0755	0.423	> 1	0.077	> 10	> 10	> 1	4.36	> 1	> 10	0.218	> 10	> 10	6.77	0.0887	> 5	> 10	> 20	–	–
PF-382 (T-Lymphoblastic Leukemia)	–	–	0.331	> 1	–	2.08	> 0.3	> 1	0.207	> 0.001	0.0344	0.00365	> 3	0.175	0.391	–	> 10	0.0172	0.0858	0.079	> 10	–	4.07	> 1	3.22	> 1	> 10	2.78	> 10	–	1.5	–	–	> 10	–	2.25	> 3
